Assay results: patent publication US10407488B2, “Therapy for treatment or prevention of conditions associated with bleeding or hypocoagulation” (THE REGENTS OF THE UNIVERSITY OF CALIFORNIA, priority 2013, dated 2019)

Columns and labels:
[1] = tested on: thrombin generation in plasma of patients with congenital FVIII-deficiency and inhibitors; assay: Thrombin generation in plasma of patients with congenital FVIII-deficiency and high titer inhibitors, spiked in vitro; assay type: biochemical, human; details: factor alone; five patient samples, BU-titer 41-280
Text: Normal pooled human plasma and plasma from human FVIII-deficient patients with and without inhibitors (titer specified in Bethesda Units (BU)) was purchased from George King Bio-Medical (Overland Park, Kans., USA). In addition, plasma and clinical information was obtained from two patients with severe FVIII-deficiency (<1% intrinsic FVIII-activity levels) and inhibitors (titers determined in BU by the clinical laboratory using the Nijmegen assay (17) regularly visiting the Hemophilia Treatment Center at the University of California, San Diego (UCSD) after informed consent was obtained. Patient confidentiality safeguards, sample and data acquisition methods were approved by the UCSD Institutional Review Board. Blood was drawn into 3.8% sodium citrate (pH 5.5) at a 9:1 blood/anticoagulant volume ratio, and processed immediately. […]
Endogenous thrombin potential (ETP) assays were performed as described (19). […] In some experiments, 1.25 μg/ml anti-FVIII antibody was added to the plasma and ETP was determined after 1 hour of preincubation. Fluorescence was measured at excitation/emission wavelengths of […] using Gemini EM fluorescent plate reader (Molecular Devices). Fluorescence time course data were converted to nM thrombin as described (20). ETP, defined as the area under the curve (AUC) and the peak height were determined using Origin or GraphPad Prism software.

Balb/c mice [2] = assay: Ex vivo whole blood aPTT after intravenous APC in Balb/c mice; parameters: species or system mouse
Protocol: Recombinant murine APC was administered intravenously to Balb/c mice by tail vein injection 2 minutes prior to retroorbital blood harvest in siliconized microcapillaries (75 μL) prefilled with 20 μL Sodium-Citrate (3.8%). Whole blood aPTT was performed immediately, whereby 50 μL of blood were mixed with 50 μL of aPTT reagent (APTT-XL, Pacific Hemostasis) and incubated at 37° C. for 3 minutes in the presence of FVa or buffer. Following addition of 25 μL of 130 mM CaCl2 in HBS, 0.5% BSA, the clotting time was recorded using an ST4 coagulometer (Diagnostica Stago).

Balb/c mice [3] = assay: Tail clip bleeding assay, APC-induced bleeding in Balb/c mice; assay type: in vivo, mouse
Protocol: Mice were anesthetized with Isoflurane 3%, placed on temperature controlled heating pads (37° C.), and the distal portion of the tail was cut at 1.5 mm diameter after which the tail was immersed in a predefined volume of 37° C. saline (0.9% NaCl) for 20 minutes. To study effects on bleeding and clot stability, tubes were changed after 10 minutes to collect blood for the first and second 10 minutes separately. Blood loss was determined by the hemoglobin concentration in the saline solution after red cell lysis with 2% acetic acid and measured by absorbance at 490 nm. Using a hemoglobin standard derived from defined blood volumes, blood loss was calculated assuming a hematocrit of 46% and expressed in μL/g body weight. Groups of Balb/c mice were injected intravenously (tail vein) with equal volumes (200 μL) of ^superFVa or saline 2 minutes prior to intravenous injection of rhAPC (Xigris®). Immediately after APC injection tail cut was performed. All agents were diluted in sterile sodium chloride 0.9% for injection (Hospira Inc).

[4] = tested on: clot lysis time in NHP with anti-FVIII antibody; assay: Clot lysis assay (t-PA mediated) in normal human plasma with anti-FVIII antibody; assay type: biochemical
Protocol: FIGS. 28A and 28B show the synergistic effect of ^superFVa in combination with rhFVIIa on clot stabilization in NHP spiked with anti-FVIII antibody. Clot lysis time was determined by t-PA mediated fibrinolysis following thrombin induced fibrin clot formation in NHP spiked with anti-FVIII-antibody. (A) Increasing concentrations of rhFVIIa were added in the absence (open circle) or presence (open square) of ^superFVa (0.37 nM). (B) Increasing concentrations of ^superFVa were added in the absence (open circle) or presence (open square) of rhFVIIa (0.37 nM). Clot lysis time of NHP without inhibitors in the absence (open upward triangle) or presence of CPI (open downward triangle) represent control experiments. Normal human plasma; NHP. Carboxypeptidase inhibitor from potato tubers; CPI. Error bars represent standard error of the mean (n≥3).
Clot stability was studied as t-PA induced clot lysis time in NHP with anti-FVIII antibodies (GMA8015) at 10 μg/mL, as well as in FVIIIdP. The concentration of antibody was based on maximal shortening of the clot lysis time from approximately 105 min to 75 min following antibody titration (data not shown). The clot lysis time in the presence of antibody (10 μg/mL) was similar to the clot lysis time in the presence of CPI, which was used as control since it causes suppression of Thrombin Activatable Fibrinolysis Inhibitor (TAFI) activation. […]

In the case of “^superFVa: engineered APC-resistant FVa variant (SEQ ID NO:4): R306Q, R506Q, R679Q, Cys609-Cys1691 disulfide, S2183A, B-domain deleted”, the “effect on ETP and peak height” value [1] was “increased ETP and peak height in all five patient samples”, the “effect on whole blood aPTT clotting times” value (Balb/c mice [2]; 1 nM added to whole blood after iv APC 0.5 mg/kg) was “significantly normalized aPTT clotting times” and the “mean whole blood aPTT” value (Balb/c mice [2]; FVa variant added ex vivo to whole blood drawn after APC 0.5 mg/kg injection) was 30 s. The mean blood loss (Balb/c mice [3]; ^superFVa 5 U/mL 2 minutes prior to APC 1.25 mg/kg, 20 minutes) was 21 µL/g, the mean blood loss (Balb/c mice [3]; ^superFVa 25 U/mL 2 minutes prior to APC 1.25 mg/kg, 20 minutes) was 9.2 µL/g and the mean blood loss (Balb/c mice [3]; ^superFVa 25 U/mL + APC, first 10 minutes) was 4.3 µL/g. The mean blood loss (Balb/c mice [3]; ^superFVa 25 U/mL + APC, second 10 minutes) was 4.8 µL/g, the mean blood loss (Balb/c mice [3]; ^superFVa iv 3.5 mg/kg 2 min prior to wt APC 1.25 mg/kg) was 9.2 µL/g and the “concentration at which clot lysis times returned to normal” value ([4]; factor alone, NHP with anti-FVIII antibody) was 3.33 nM. The “concentration showing enhancement of clot lysis time” value ([4]; factor individually, 10 μg/ml anti-FVIII antibody) was 2 to 5 µg/mL.
